As a reminder, the viability is a per cent measure of how many cells are alive, often set against a control.

Among the data in ChEMBL document CHEMBL1155600, “Constituents of Boronia pinnata” (J Nat Prod, 2000) are viability values, retold here.

Series [1] is described as follows: Cytotoxicity against human Raji cells assessed as cell viability at 16 nmol by trypan blue assay.
The nature of series [2]: Cytotoxicity against human Raji cells assessed as cell viability at 3.2 nmol by trypan blue assay.
Series [3] can be described thus: Cytotoxicity against human Raji cells assessed as cell viability at 0.32 nmol by trypan blue assay.
Series [4] in a line: Cytotoxicity against human Raji cells assessed as cell viability at 32 nmol by trypan blue assay.

For `CC(C)=CCc1cc(/C=C/C=O)ccc1O`, the viability at 16 nmol in series [1] (Raji cells) is above 80%. In series [2] (Raji cells), the viability at 3.2 nmol is above 80%. In addition, the viability at 0.32 nmol in series [3] (Raji cells) was above 80%. In series [4] (Raji cells), the viability at 32 nmol came out at 60%.

Regarding `OC/C=C/c1ccc2c(c1)OCO2`, in series [1] (Raji cells), the viability at 16 nmol was above 80%. Also, in series [2] (Raji cells), the viability at 3.2 nmol was above 80%. Also, in series [3] (Raji cells), the viability at 0.32 nmol is above 80%. Besides, the viability at 32 nmol in series [4] (Raji cells) worked out at 70%.

Take `COc1cc(=O)n(C)c2c(OC)cccc12`: the viability at 16 nmol in series [1] (Raji cells) is above 80%. The viability at 3.2 nmol in series [2] (Raji cells) is above 80%. The viability at 0.32 nmol in series [3] (Raji cells) was above 80%. In series [4] (Raji cells), the viability at 32 nmol is 60%.

For `COc1cc2ccc(=O)oc2c2c1OC(C)(C)C=C2`, the viability at 16 nmol in series [1] (Raji cells) was above 80%. Further, the viability at 3.2 nmol in series [2] (Raji cells) is above 80%. Further, in series [3] (Raji cells), the viability at 0.32 nmol was above 80%. Further, the viability at 32 nmol in series [4] (Raji cells) stood at 60%.

Consider `COc1cc(/C=C/C(=O)O)ccc1OCC=C(C)C` [BOROPINIC ACID], for which, in series [1] (Raji cells), the viability at 16 nmol is above 80%. In addition, the viability at 3.2 nmol in series [2] (Raji cells) was above 80%. The viability at 0.32 nmol in series [3] (Raji cells) was above 80%. Further, in series [4] (Raji cells), the viability at 32 nmol was 70%.

On to `O=C(O)/C=C/c1ccc(O)cc1` [COUMARIC ACID], for which the viability at 16 nmol in series [1] (Raji cells) was above 80%. Moreover, the viability at 3.2 nmol in series [2] (Raji cells) was above 80%. Further, the viability at 0.32 nmol in series [3] (Raji cells) is above 80%. Besides, the viability at 32 nmol in series [4] (Raji cells) is 60%.

On to `COc1c2ccccc2nc2occc12` [DICTAMNINE], for which the viability at 16 nmol in series [1] (raji) was above 80%. Further, the viability at 3.2 nmol in series [2] (raji) is above 80%. The viability at 0.32 nmol in series [3] (raji) is above 80%. The viability at 32 nmol in series [4] (raji) amounted to 60%.

On to `COc1ccc2c(OC)c3ccoc3nc2c1` [EVOLITRINE], for which, in series [1] (Raji cells), the viability at 16 nmol is above 80%. For the same compound, the viability at 3.2 nmol in series [2] (Raji cells) was above 80%. Besides, the viability at 0.32 nmol in series [3] (Raji cells) is above 80%. In addition, the viability at 32 nmol in series [4] (Raji cells) turned out to be 60%.

On to `COc1ccc2c(OC)c(CC=C(C)C)c(=O)[nH]c2c1OC` [PRESKIMMIANINE], for which, in series [1] (Raji cells), the viability at 16 nmol was above 80%. The viability at 3.2 nmol in series [2] (Raji cells) is above 80%. The viability at 0.32 nmol in series [3] (Raji cells) is above 80%. Also, the viability at 32 nmol in series [4] (Raji cells) was determined as 60%.

Take `COc1cc(C=O)cc(OC)c1O` [SYRINGALDEHYDE]: the viability at 16 nmol in series [1] (Raji cells) is above 80%. The viability at 3.2 nmol in series [2] (Raji cells) is above 80%. In series [3] (Raji cells), the viability at 0.32 nmol was above 80%. Also, the viability at 32 nmol in series [4] (Raji cells) was found to be 60%.
